Test results: publication PMC3963473, “Structure–Activity Relationship Studies of Pyrrolone Antimalarial Agents” (Chemmedchem, 2013)
≈ marks a conversion by molar mass, not a printed value. Where two headings read alike, the source gives them in different places.

What was measured:
[1] = test system: Plasmodium berghei; set-up: method as in PMID 23517371; conditions: P. berghei mouse model; dosed intraperitoneally; cited from earlier work
[2] = Aqueous solubility estimated by nephelometry; assay type: physicochemical; conditions: kinetic from dmso stock
Protocol: III. Physicochemical Evaluation […]
Solubility Estimation: Aqueous solubility was estimated by nephelometry.
Compound in DMSO was spiked into either water, pH 6.5 phosphate buffer or 0.01N HCl
(approx. pH 2.0) with the final DMSO concentration being 1%. Samples were then
analyzed by Nephelometry to determine the solubility range as described previously.1

[3] = test system: Plasmodium falciparum K1; assay: microbe, parasite or virus in culture; assay type: cell-based; conditions: Plasmodium falciparum, K1, read-out: EC50 P. falc.
Protocol: (§1) V. Design and Results of the in vitro & in vivo Studies.
A. Drug inhibition of in vitro cultured P. falciparum parasite:2 All in vitro assays were carried out twice independently. In vitro activity against the erythrocytic stages of P. falciparum was determined by using a 3H-hypoxanthine incorporation assay,5-6 using the […]
were dissolved in DMSO at 10 mg/mL and added to parasite cultures incubated in RPMI […]
haematocrit (0.3% parasitaemia). Serial doubling dilutions of each drug were prepared in […]
After 48 h, 50 µL of 3H-hypoxanthine (= 0.5 µCi) was added to each well of the plate. The plates were incubated for an additional 24 h under the same conditions. The plates were then harvested with a Betaplate cell harvester (Wallac, Zurich, Switzerland), and the red blood cells were transferred onto a glass fiber filter and then washed with distilled water. The dried filters were inserted into a plastic foil with 10 mL of scintillation fluid and were counted in a Betaplate™ liquid scintillation counter (Wallac, Zurich, […]

[4] = test system: L6 cells; assay: In vitro cytotoxicity assay in L6 cells (Alamar Blue); assay type: cell-based; conditions: Rattus norvegicus, mean of two independent assays, read-out: EC50 L6 cells
Protocol: as §1
A. Drug inhibition of in vitro cultured P. falciparum parasite:2 All in vitro assays were carried out twice independently. In vitro activity against the erythrocytic stages of P. […]
B. In vitro cytotoxicity assay:2 Assays were performed in 96-well microtiter plates, each […]
mM) and 10% fetal bovine serum, and 4 x 10^4 L-6 cells (a primary cell line derived from rat skeletal myoblasts). Serial drug dilutions of seven 3-fold dilution steps covering a range […]
After 72 h of incubation the plates were inspected […]
of Alamar Blue was then added to each well and the plates incubated for another 2 h.
Then the plates were read with a Spectramax Gemini XS microplate fluorometer (Molecular Devices Cooperation, Sunnyvale, CA, USA) using an excitation wave length of […]
Data were analysed using the microplate reader software Softmax Pro (Molecular Devices Cooperation, Sunnyvale, CA, USA).

[5] = test system: green fluorescent protein (GFP)-transfected Plasmodium berghei ANKA; assay type: in vivo; conditions: for [%] Reduction parasitaemia: mice, 10 % DMSO in water; for Survival: in vivo
Protocol: In vivo efficacy studies: The protocols are described in the Supporting Information. In vivo efficacy studies in mice were conducted at the Swiss Tropical & Public Health Institute (Basel, Switzerland) according to the rules and regulations for the protection of animal rights (“Tierschutzverordnung”) of the Swiss “Bundesamt für Veterinärwesen”. They were approved by the veterinary office of Canton Basel-Stadt, Switzerland.
C. In vivo antimalarial efficacy studies (4 days treatment).2
In vivo antimalarial activity was assessed basically as previously described. Groups of […]
erythrocytes on day 0 with GFP-transfected P. berghei strain ANKA. .Unless otherwise indicated compounds were formulated in 100% DMSO, diluted 10-fold in distilled water and administered intraperitoneally or orally in a volume of 10 mL kg-1 on four consecutive days (4, 24, 48 and 72 h post infection). Parasitemia was determined on day 4 post infection (24 h after last treatment) by FACS analysis. Activity was calculated as the difference between the mean per cent parasitaemia for the control (n=5 mice) and treated groups expressed as a per cent relative to the control group. The survival time in days was also recorded up to 30 days after infection. A compound was considered curative if the animal survived to day 30 after infection with no detectable parasites. All protocols and procedures used in the current study were reviewed and approved by the local veterinary authorities of the Canton Basel-Stadt.

[6] = Table 1, water, nephelometry, 1% DMSO, read-out: Solubility water
[7] = Table 1, A-ring variants, mammalian L6 cells
[8] = Table 2, water, read-out: Solubility water
[9] = Table 2, C-ring variants, L6 cells
[10] = aqueous buffer, pH 6.5 phosphate buffer, nephelometry, 1% DMSO, read-out: Solubility pH 6.5
[11] = simulated gastric fluid, pH 2.0 (0.01N HCl), nephelometry, 1% DMSO, read-out: Solubility pH 2.0

Row | Compound | solubility [2, 6] | EC50 [3] | EC50 [4, 7] | melting point | solubility [2, 8] | EC50 [4, 9] | other results
1 | CCOC(=O)C1=C(C)N/C(=C/c2cc(C)n(-c3ccccc3C(F)(F)F)c2C)C1=O [TDR32750] |  |  |  |  |  |  | depression of parasitaemia [1]: > 99%
2 | CCOC(=O)C1=C(C)N/C(=C/c2cc(C)n(C3CCN(Cc4ccc(-c5noc(C)n5)cc4)CC3)c2C)C1=O [Compound 51] | > 125 µM | 0.001 µM | 11 µM | 195 to 200 °C |  |  | 
3 | Cc1cc(/C=C2/Nc3ccn(Cc4ccncc4)c(=O)c3C2=O)c(C)n1-c1ccccc1C(F)(F)F [Compound 64] |  | 0.077 µM |  | 215 to 240 °C | > 125 µM | 38 µM | 
4 | CCOC(=O)C1=C(C)N/C(=C/c2cc(C)n(C3CCN(Cc4cocn4)CC3)c2C)C1=O [Compound 48] | > 125 µM | 0.018 µM | 0.16 µM | 180 to 182 °C |  |  | 
5 | CCOC(=O)C1=C(C)N/C(=C/c2cc(C)n(C3CCN(Cc4ccccc4)CC3)c2C)C1=O [Compound 17, (E)-Ethyl 5-((1-(1-benzylpiperidin-4-yl)-2,5-dimethyl-1H-pyrrol-3-yl)methylene)-2-methyl-4-oxo-4,5-dihydro-1H-pyrrole-3-carboxylate] | > 125 µM | 0.035 µM | 20 µM | 150 to 155 °C |  |  | solubility [2, 10]: 14 to 28 µM (≈ 6.27 to 12.5 µg/mL); solubility [2, 11]: 56 to 110 µM (≈ 25.1 to 49.2 µg/mL)
6 | CCOC(=O)C1=C(C)N/C(=C/c2cc(C)n(C3CCN(c4ccc(C(F)(F)F)cc4)CC3)c2C)C1=O [Compound 30] | > 125 µM | 0.024 µM | 10 µM | 153 to 158 °C |  |  | 
7 | CCOC(=O)C1=C(C)N/C(=C/c2cc(C)n(C3CCN(Cc4ccc(C(F)(F)F)nc4)CC3)c2C)C1=O [Compound 43] | > 125 µM | 0.004 µM | 49 µM |  |  |  | [%] Reduction parasitaemia ([5]; 50 mg kg^−1 day^−1 ip): 10.0%; activity in vivo (in words) ([5]; 50 mg/kg ip and 100 mg/kg po): failed to show significant activity in vivo; [%] Reduction parasitaemia ([5]; 100 mg kg^−1 day^−1 po): 0.0%; Survival ([5]; ip): 4 days; Survival ([5]; po): 4 days
8 | CCOC(=O)C1=C(C)N/C(=C/c2cc(C)n(C3CCN(CC)CC3)c2C)C1=O [Compound 20] |  | 2.4 µM | 7.6 µM | 140 to 145 °C |  |  | solubility [2, 10]: > 250 µM; solubility [2, 11]: > 250 µM
9 | CCOC(=O)C1=C(C)N/C(=C/c2cc(C)n(C3CCN(CC4CCCCC4)CC3)c2C)C1=O [Compound 40] | > 125 µM | 0.016 µM | 13 µM | 184 to 186 °C |  |  | 
10 | Cc1cc(/C=C2/Nc3cc[nH]c(=O)c3C2=O)c(C)n1-c1ccccc1C(F)(F)F [Compound 56] |  | 0.047 µM |  |  | > 125 µM | 54 µM | [%] Reduction parasitaemia ([5]; 50 mg kg^−1 day^−1 ip): 21.8%; [%] Reduction parasitaemia ([5]; 100 mg kg^−1 day^−1 po): 13.6%; Survival ([5]; ip): 4 days; Survival ([5]; po): 4 days
11 | CCn1ccc2c(c1=O)C(=O)/C(=C\c1cc(C)n(-c3ccccc3C(F)(F)F)c1C)N2 [Compound 58] |  | 0.021 µM |  | 204 to 205 °C | > 125 µM | 36 µM | 
12 | Cc1cc(/C=C2/Nc3ccn(C)c(=O)c3C2=O)c(C)n1-c1ccccc1C(F)(F)F [Compound 57] |  | 0.014 µM |  |  | > 125 µM | 29 µM | [%] Reduction parasitaemia ([5]; 50 mg kg^−1 day^−1 ip): 99.9%; [%] Reduction parasitaemia ([5]; 100 mg kg^−1 day^−1 po): 50.5%; Survival ([5]; po): 8 days
